Values quoted from earlier work, collected in article PMC7113672 (Antiviral Research, 2014).

What was measured:
[1] = system: SARS-CoV; settings: in vivo
[2] = system: MERS-CoV
[3] = system: influenza A/WSN/1933 (H1N1) virus
[4] = system: other cysteine proteases such as the coronaviral main protease, cathepsins B, K, L, and S, and papain

Structure (SMILES) | efficacy against SARS-CoV [1] | effect of combination on replication of MERS-CoV [2] | EC50 ([2]; read-out: EC50, inhibition of MERS-CoV replication) [µM] | selectivity index [3] | EC50 ([3]; read-out: EC50, protective effect against influenza A/WSN/1933 (H1N1) virus) [µM] | inhibition of other cysteine proteases [4]
COc1c(C)c2c(c(O)c1C/C=C(\C)CCC(=O)O)C(=O)OC2 [Mycophenolic acid] | ineffective | synergistically inhibit | 0.27 | – | – | –
Sc1ncnc2nc[nH]c12 [6MP, 6-Mercaptopurine] | – | – | – | 4 | 26.5 | do not inhibit
Nc1nc2nc[nH]c2c(=S)[nH]1 [6TG, 6-Thioguanine] | – | – | – | – | – | do not inhibit
